Values of other authors as cited in US20240252511A1, “METHODS OF TREATING DEPRESSION AND ANXIETY” (Woolsey Pharmaceuticals, Inc., priority 2021, published 2024).

Conditions: in vivo; 1 hydroxy (M3) metabolite

half-life: about 8 hours
Compound: O=S(=O)(c1cccc2c(O)nccc12)N1CCCNCC1 [M3, hydroxyfasudil]
